Source: patent publication US10035810B2, “5,6-dihydro-4H-benzo[b]thieno-[2,3-d]azepine derivative” (PULMOCIDE LIMITED, priority 2014, dated 2018)

Tests used:
HEp2 cells = assay: Cell viability: resazurin assay; assay type: cell-based, human; details: incubation with compound
Protocol: Cell Viability: Resazurin Assay
HEp2 cells were seeded in 384-well plates (10^3/well/50 μL; BD Falcon Ref 353962) in FBS DMEM (5%, containing 2 mM L-glutamine and 1 mM sodium pyruvate) one day before experimentation. Serum-free DMEM (50 μL) was added to test wells while for control wells the media was removed and sterile water (100 μL) was added. Compound (I) (0.5 μL DMSO solution) was added to give a final DMSO concentration of 0.5%. Hep2 cells were incubated with each test compound for 5 days (37° C./5% CO2 in 5% FBS) and then resazurin stock solution (5 μL; 0.03%) was added to each well and the plate incubated for a further 6 hr (37° C./5% CO2). The fluorescence of each well at 545 nm (excitation) and 590 nm (emission) was determined using a multi-scanner (Clariostar: BMG Labtech). The percentage loss of cell viability was calculated for each well relative to vehicle (0.5% DMSO) treatment.
Any apparent increase in cell viability associated with test compound treatment relative to vehicle is consequently tabulated as a negative percentage. Where appropriate, a CC50 value was calculated from the concentration-response curve generated for Compound (I).

RSV A2 strain = assay: RSV A2-induced CPE in HEp2 cells; assay type: cell-based; details: human respiratory syncytial virus
Protocol: Assessment of RSV Induced CPE in HEp2 Cells
HEp2 cells were seeded (10^3/well/50 μL) in 384-well plates (Catalogue number 353962, BD Falcon, Oxford, UK) in […] containing 2 mM L-glutamine and 1 mM sodium pyruvate one day before infection. RSV A2 strain (#0709161v, NCPV, Public Health England, Wiltshire) or RSV B Washington strain (VR-1580, ATCC, Manassas, Va. 20108) virus solutions were prepared in serum free-DMEM with 2 mM L-glutamine and 1 mM sodium pyruvate, and then added (50 μL/well) to achieve a final virus concentration of 1 MOI. Simultaneously Compound (I) (0.5 μL DMSO solution) was added to 100 μL of HEp2 cell culture with virus solution to provide a final DMSO solution of 0.5%. Plates were incubated (37° C./5% CO2) for 5 days for studies using RSV A2 strain or 6 days for those using RSV B strain, and then resazurin sodium salt (5 μL of 0.03% solution; Sigma-Aldrich, Dorset, UK) was added to each well and the plate incubated for a further 6 hr (37° C./5% CO2). The fluorescence of each well [545 nm (excitation)/590 nm (emission)] was determined using a multi-scanner (Clariostar: BMG, Buckinghamshire, UK). The percentage inhibition for each well was calculated and the IC50, IC75 and IC90 values were calculated from the concentration-response curve generated for Compound (I).

RSV A2 = assay: Virus titre in air-liquid interface (ALI) cultured bronchial epithelial cells (plaque assay); assay type: cell-based, respiratory syncytial virus
Protocol: Assessment of Virus Titre in Air-Liquid Interface (ALI) Cultured Bronchial Epithelial Cells
ALI cultured human bronchial epithelial cells were sourced from Epithelix Sàrl (Geneva, Switzerland) and maintained by changing the basal media every 3-4 days, whilst the apical surface was washed once weekly with PBS. On day 0, the apical surface of each well was washed once with sterile PBS (300 μL) and the inserts were transferred to new 24-well plates containing fresh MucilAir culture medium (780 μL; EP04MM). RSV A2 (50 μL; diluted in MucilAir culture medium to give a final MOI of 0.01) was added to cells for 1 hr (37° C./5% CO2). For the purposes of standardizing MOI calculations, each MucilAir insert was estimated to contain 2×10^5 apical facing cells per well. Virus inoculum was removed with a pipette and inserts were washed twice with sterile PBS (300 μL).
Sampling was conducted by adding sterile PBS (300 μL) to the apical surface of each well for 5 min. The apical sample was then removed and transferred to tubes containing 50% sucrose dissolved in PBS (100 μL) before being stored at −80° C. This harvesting procedure was repeated daily beginning on day 0 and concluding on day 7. […]
Virus titre was quantified by plaque assay. […] Plaques were counted by eye and confirmed using light microscopy, allowing the calculation of plaque forming units per mL.

Cc1cnc(N2CC3(CCOCC3)C2)c(C(=O)Nc2ccc(C(=O)N3CCc4cc(C(=O)Nc5c(C)cccc5F)sc4-c4ccccc43)cc2)c1 [Compound (I), N-(2-fluoro-6-methylphenyl)-6-(4-(5-methyl-2-(7-oxa-2-azaspiro[3.5]nonan-2-yl)nicotinamido)benzoyl)-5,6-dihydro-4H-benzo[b]thieno[2,3-d]azepine-2-carboxamide]
Effect on cell viability (in words) (HEp2 cells): No effect on cell viability
IC50 (RSV A2 strain; HEp-2, 120 h, 1 MOI, 5 days): 17 pM
inhibition at 0.1 µg/mL (RSV A2 strain; HEp-2, at 0.1 μg/mL): 100%
Inhibition of RSV titre in ALI culture (in words) (RSV A2; early intervention, daily day 0 to day 7, 0.1 μg/mL, over 7 days): complete inhibition
Virus titre in ALI culture (in words) (RSV A2; late intervention, administered from day 3, days 6 and 7 post infection): dramatic reduction of virus titre
